The values that follow come from ChEMBL document CHEMBL4118122, “Identification and biological evaluation of thiazole-based inverse agonists of RORγt” (Bioorg Med Chem Lett, 2018).

Values after ≈ are worked out from the molar mass of the structure shown. Where only a bound is given, the exact number is not on record here.

The nature of series [1]: Thermodynamic solubility of the compound in 30 mM phosphate buffer at 10 mM at pH 7 after 2 to 5 days by UV-HPLC analysis. It counts as physicochemical. The settings on record: read-out: Therm_solubility.
A short description of series [2]: Half life in rat microsomes. The class given is ADME, Microsome.
Series [3] in a line: Half life in human microsomes. The class given is ADME, Microsome.
The target of series [4] is T1, Cytochrome P450 1A2 (Homo sapiens, UniProt P05177).
T1 sequence (P05177 whole entry): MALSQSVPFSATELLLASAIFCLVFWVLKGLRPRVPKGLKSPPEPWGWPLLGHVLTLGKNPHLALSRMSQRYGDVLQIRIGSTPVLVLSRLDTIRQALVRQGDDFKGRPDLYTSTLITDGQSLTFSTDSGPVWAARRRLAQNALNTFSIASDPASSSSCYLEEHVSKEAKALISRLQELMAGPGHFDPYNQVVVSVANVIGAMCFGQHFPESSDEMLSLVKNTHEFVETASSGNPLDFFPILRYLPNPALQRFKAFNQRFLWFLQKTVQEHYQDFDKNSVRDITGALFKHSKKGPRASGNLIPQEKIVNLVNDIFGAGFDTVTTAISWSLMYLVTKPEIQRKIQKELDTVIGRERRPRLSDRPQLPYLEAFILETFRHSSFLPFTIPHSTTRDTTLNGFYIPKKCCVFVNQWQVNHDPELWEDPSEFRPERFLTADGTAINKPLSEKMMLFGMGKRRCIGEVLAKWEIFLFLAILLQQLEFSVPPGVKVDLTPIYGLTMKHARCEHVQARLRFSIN
The series is described as follows: Inhibition of CYP1A2 (unknown origin). It counts as ADME.

Series [5] concerns the target Cytochrome P450 2C19 (Homo sapiens, UniProt P33261). The series is described as follows: Inhibition of CYP2C19 (unknown origin). The class given is ADME.
Series [6] deals with T2, Cytochrome P450 2C8 (Homo sapiens, UniProt P10632).
T2 sequence (P10632 whole entry): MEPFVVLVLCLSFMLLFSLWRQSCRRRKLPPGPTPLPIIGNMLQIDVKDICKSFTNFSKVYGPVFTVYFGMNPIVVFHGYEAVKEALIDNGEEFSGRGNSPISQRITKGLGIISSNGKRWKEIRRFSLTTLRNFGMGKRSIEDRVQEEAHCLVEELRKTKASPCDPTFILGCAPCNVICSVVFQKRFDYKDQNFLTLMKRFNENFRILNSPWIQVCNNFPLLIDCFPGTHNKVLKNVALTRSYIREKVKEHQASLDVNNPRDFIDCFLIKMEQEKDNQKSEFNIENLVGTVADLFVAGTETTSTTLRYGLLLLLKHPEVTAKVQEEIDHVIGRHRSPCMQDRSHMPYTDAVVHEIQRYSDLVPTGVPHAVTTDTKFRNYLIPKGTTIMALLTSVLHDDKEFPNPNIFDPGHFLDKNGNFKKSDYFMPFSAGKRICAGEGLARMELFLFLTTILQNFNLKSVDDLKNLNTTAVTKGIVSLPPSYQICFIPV
The series is described as follows: Inhibition of CYP2C8 (unknown origin). It counts as ADME.

In series [7] the target is Cytochrome P450 2C9 (Homo sapiens, UniProt P11712). The series is described as follows: Inhibition of CYP2C9 (unknown origin). The class given is ADME.
Chain of Cytochrome P450 2C9 (P11712 whole entry): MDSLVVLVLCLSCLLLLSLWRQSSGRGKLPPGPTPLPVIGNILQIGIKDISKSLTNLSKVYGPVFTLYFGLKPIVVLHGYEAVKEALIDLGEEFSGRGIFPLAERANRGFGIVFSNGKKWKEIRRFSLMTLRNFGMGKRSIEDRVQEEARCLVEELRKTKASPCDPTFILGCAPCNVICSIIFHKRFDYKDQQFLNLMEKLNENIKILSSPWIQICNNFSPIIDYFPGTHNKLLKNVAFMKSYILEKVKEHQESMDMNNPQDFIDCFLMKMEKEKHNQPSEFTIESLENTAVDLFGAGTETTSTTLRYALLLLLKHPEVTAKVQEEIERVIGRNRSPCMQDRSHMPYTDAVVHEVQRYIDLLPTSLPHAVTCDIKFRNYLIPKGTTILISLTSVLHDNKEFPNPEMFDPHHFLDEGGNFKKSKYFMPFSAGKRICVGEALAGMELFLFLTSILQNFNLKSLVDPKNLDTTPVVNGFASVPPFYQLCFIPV
Series [8] deals with Cytochrome P450 2D6 (Homo sapiens, UniProt P10635). Nature of the series: Inhibition of CYP2D6 (unknown origin). It counts as ADME.
Chain of Cytochrome P450 2D6 (P10635 whole entry): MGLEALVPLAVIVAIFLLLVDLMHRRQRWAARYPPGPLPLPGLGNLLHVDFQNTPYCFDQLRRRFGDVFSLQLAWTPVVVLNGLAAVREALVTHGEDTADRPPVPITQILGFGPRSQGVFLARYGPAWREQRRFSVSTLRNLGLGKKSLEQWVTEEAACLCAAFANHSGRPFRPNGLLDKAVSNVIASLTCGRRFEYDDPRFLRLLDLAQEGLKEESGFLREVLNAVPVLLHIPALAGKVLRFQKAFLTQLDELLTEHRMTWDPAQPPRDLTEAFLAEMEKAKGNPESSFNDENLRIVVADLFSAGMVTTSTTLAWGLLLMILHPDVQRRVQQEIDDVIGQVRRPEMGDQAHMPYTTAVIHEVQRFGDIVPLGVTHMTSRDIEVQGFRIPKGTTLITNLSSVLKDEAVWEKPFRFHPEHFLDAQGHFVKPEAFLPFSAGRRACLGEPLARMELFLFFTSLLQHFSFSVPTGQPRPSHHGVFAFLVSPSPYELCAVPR
Series [9] has as its target Cytochrome P450 3A4 (Homo sapiens, UniProt P08684). Nature of the series: Inhibition of CYP3A4 (unknown origin). The class given is ADME.
The target of series [10] is Voltage-gated inwardly rectifying potassium channel KCNH2 (Homo sapiens, UniProt Q12809). The series is described as follows: Inhibition of human ERG.
Chain of Voltage-gated inwardly rectifying potassium channel KCNH2 (Q12809 whole entry): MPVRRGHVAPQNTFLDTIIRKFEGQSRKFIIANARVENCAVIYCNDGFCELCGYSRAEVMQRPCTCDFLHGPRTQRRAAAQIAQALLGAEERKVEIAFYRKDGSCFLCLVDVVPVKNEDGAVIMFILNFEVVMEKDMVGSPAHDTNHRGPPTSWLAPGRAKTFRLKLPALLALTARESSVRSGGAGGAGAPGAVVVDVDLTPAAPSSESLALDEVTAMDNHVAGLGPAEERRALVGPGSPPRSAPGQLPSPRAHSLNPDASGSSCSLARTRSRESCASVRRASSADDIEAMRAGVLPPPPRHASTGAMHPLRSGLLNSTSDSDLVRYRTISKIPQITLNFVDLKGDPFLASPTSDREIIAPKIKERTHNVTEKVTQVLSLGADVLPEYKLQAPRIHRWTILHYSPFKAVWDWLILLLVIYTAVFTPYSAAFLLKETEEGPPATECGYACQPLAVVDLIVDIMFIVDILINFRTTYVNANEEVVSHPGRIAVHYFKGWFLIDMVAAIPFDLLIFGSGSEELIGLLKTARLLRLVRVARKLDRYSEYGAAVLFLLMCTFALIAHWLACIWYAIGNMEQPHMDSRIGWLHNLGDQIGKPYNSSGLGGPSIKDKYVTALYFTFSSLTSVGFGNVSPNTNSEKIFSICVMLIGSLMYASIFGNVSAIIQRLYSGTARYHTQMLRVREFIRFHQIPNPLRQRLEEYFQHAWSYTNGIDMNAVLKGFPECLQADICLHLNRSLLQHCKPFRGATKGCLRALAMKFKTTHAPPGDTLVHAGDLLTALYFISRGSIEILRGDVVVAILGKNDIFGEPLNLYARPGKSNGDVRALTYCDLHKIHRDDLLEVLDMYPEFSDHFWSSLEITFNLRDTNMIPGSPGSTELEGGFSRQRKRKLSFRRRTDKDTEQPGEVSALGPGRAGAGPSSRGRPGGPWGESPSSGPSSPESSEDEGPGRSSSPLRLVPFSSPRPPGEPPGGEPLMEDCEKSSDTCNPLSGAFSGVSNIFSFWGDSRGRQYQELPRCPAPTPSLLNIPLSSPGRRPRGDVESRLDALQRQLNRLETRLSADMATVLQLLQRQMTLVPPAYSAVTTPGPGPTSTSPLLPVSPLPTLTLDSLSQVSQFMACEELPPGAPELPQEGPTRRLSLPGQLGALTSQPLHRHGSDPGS
The target of series [11] is T3, PXR (NR1I2) (Homo sapiens, UniProt O75469).
T3 sequence (O75469 whole entry): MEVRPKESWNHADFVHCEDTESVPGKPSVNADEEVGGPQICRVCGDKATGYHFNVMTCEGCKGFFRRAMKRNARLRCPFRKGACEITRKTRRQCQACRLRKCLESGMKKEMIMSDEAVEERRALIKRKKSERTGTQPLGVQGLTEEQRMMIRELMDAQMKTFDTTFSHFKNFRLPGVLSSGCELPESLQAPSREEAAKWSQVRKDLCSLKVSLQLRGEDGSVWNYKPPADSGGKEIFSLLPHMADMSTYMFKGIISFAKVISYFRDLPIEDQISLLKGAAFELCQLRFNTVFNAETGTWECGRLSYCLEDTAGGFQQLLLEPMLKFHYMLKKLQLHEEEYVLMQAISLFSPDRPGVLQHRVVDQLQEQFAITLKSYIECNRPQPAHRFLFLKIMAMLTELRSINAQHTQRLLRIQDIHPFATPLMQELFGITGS
Nature of the series: […] at PXR LBD (unknown origin) expressed in HEK293 cells […] at 1 uM after 16 hrs by luciferase reporter gene assay relative to rifampicin. It counts as ADME, cell-based. The conditions noted are these: HEK293 cells expressing PXR LBD, read-out: Efficacy. In general terms: A reporter such as luciferase makes a cellular process visible.

Series [12] in a line: Thermodynamic solubility of the compound in fasted state simulated intestinal […] after 2 to 5 days by UV-HPLC analysis. The class given is physicochemical. The settings on record: read-out: Therm_solubility.
For series [13], the target named is T3, PXR (NR1I2). Nature of the series: […] at PXR LBD (unknown origin) expressed in HEK293 cells […] at 10 uM after 16 hrs by luciferase reporter gene assay relative to rifampicin. The class given is ADME, cell-based. The conditions noted are these: HEK293 cells expressing PXR LBD, read-out: Efficacy.

The nature of series [14]: Clearance in Sprague-Dawley rat at 0.5 mg/kg, iv. It counts as ADME, organism-based. The settings on record: in vivo.
Series [15] can be described thus: Volume of distribution at steady state in Sprague-Dawley rat at 0.5 mg/kg, iv. The class given is ADME, organism-based. The settings on record: in vivo, read-out: Vdss.
Series [16] can be described thus: (§1) AUC (0 to infinity) in Sprague-Dawley rat at 0.5 mg/kg, iv. It counts as ADME, organism-based. More on the design: dose 0.5 mg/kg, route intravenous, time infinity. The conditions noted are these: Sprague-Dawley, in vivo.
Series [17] is described as follows: Initial plasma concentration in Sprague-Dawley rat at 0.5 mg/kg, iv. It counts as ADME, organism-based.
A short description of series [18]: Half life in Sprague-Dawley rat at 0.5 mg/kg, iv. The settings on record: in vivo. It counts as ADME, organism-based.
Series [19] is described as follows: Cmax in Sprague-Dawley rat at 2.5 mg/kg, po. The class given is ADME, organism-based. Also noted: dose 2.5 mg/kg, route oral. The conditions noted are these: in vivo.
Series [20] is described as follows: Tmax in Sprague-Dawley rat at 2.5 mg/kg, po. The conditions noted are these: in vivo. The class given is ADME, organism-based.
A short description of series [21]: AUC (0 to infinity) in Sprague-Dawley rat at 2.5 mg/kg, po. The class given is ADME, organism-based. Also noted: dose 2.5 mg/kg, time infinity, route oral. The conditions noted are these: in vivo.
The nature of series [22]: Terminal half life in Sprague-Dawley rat at 2.5 mg/kg, po. The class given is ADME, organism-based. The conditions noted are these: in vivo, read-out: beta t1/2 (converted).
The nature of series [23]: Oral bioavailability in Sprague-Dawley rat at 2.5 mg/kg. The class given is ADME, organism-based. The conditions noted are these: in vivo.
Series [24] concerns Rattus norvegicus. The series is described as §1. It counts as ADME, organism-based. More on the design: dose 0.5 mg/kg, route intravenous, time infinity. The conditions noted are these: in vivo.
Series [25] is described as follows: Glutathione reactivity assessed as GSH adduct formation. The class given is physicochemical.

As a reminder, the clearance is a measure of how efficiently the substance is removed, as volume per time. One may read the AUC(0-inf) as total exposure, with the tail of the curve extrapolated. Read a high AUC(0-inf) as more exposure. As a reminder, the Cmax is the maximum level reached in the sampled fluid or tissue. A word on the Tmax: it is the time from dosing to the highest level. By bioavailability is commonly meant the share of a dose that reaches the circulation, judged against a reference dose that is usually intravenous. In general, AUC refers to the area under the concentration-time curve, a measure of exposure. A low value points to low exposure.

Chain of Cytochrome P450 2C19 (P33261 whole entry): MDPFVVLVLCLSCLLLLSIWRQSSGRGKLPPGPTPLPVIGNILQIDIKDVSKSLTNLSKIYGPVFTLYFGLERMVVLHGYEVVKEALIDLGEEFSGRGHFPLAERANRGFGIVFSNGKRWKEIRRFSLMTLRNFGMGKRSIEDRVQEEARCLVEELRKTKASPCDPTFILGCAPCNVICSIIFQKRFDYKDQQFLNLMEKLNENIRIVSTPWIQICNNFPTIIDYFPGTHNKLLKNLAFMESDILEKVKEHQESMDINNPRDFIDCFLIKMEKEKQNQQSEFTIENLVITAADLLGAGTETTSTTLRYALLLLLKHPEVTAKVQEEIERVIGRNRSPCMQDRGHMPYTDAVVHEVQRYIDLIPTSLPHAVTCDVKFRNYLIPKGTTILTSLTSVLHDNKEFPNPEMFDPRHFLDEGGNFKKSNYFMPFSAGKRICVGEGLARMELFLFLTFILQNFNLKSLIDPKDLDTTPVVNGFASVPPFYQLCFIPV
Chain of Cytochrome P450 3A4 (P08684 whole entry): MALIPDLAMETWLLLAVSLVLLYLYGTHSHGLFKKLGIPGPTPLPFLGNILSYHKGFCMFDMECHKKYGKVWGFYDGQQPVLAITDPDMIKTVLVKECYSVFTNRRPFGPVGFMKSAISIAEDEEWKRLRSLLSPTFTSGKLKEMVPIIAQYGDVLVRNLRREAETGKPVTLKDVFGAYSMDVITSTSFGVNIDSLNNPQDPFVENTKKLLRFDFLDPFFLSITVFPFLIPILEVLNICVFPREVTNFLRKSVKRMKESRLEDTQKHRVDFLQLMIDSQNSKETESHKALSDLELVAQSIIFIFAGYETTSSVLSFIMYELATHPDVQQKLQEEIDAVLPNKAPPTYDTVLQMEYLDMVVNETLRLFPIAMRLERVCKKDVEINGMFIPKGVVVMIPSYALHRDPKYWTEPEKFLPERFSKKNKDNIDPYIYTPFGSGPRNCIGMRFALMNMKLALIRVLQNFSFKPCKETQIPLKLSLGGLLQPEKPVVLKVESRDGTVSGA

Regarding `CC(C)(C)NS(=O)(=O)c1ccc(-c2sc(C(=O)NCCN3CCOCC3)nc2CC2CCCCC2)c2ccccc12`, the solubility thermodynamic at 10000 µM in series [1] is less than 4 µM. Besides, the figures for the half-life in [2] and in [3] were 5.1 min and less than 4 min, respectively. The INH in series [4] was more than 10 µM; in series [5] it was 1.1 µM; in [6], 2.8 µM; in series [7], 0.4 µM; in series [8] it was 6.2 µM; in series [9], 7.1 µM. In addition, in series [10], the “inhibition (INH)” value is recorded as “Not Active”.
Regarding `CCC(C)(C)NS(=O)(=O)c1ccc(-c2sc(C(=O)N[C@H]3C[C@H](C(=O)O)C3)nc2CC2CCCCC2)c(Cl)c1C`, the Emax at 16 h, 1 µM in series [11] was determined as 21%. In addition, in [1], the solubility thermodynamic at 10000 µM was less than 1 µM. Further, the solubility thermodynamic in series [12] is 59 µM (≈ 35.2 µg/mL). The Emax at 16 h, 10 µM in series [13] worked out at 34%. The half-life in series [2] is 44 min; in series [3], 27 min; in series [18] it was 24 min; in series [22] it was 186 min. In addition, the INH in series [4] was more than 10 µM; in series [5], more than 10 µM; in [6], 1.8 µM; in [7] it was 3.2 µM; in series [8] it was more than 10 µM; in [9] it was more than 10 µM. Also, the clearance in [14] was 98.8 mL/min/kg. In addition, the Vd in [15] was determined as 2.1 L/kg. Also, the AUC(0-inf) was 170 ng·h/mL in series [16] and 142 ng·h/mL in [21]. The C0 in [17] is 1410 ng/mL. In series [19], this compound returned a Cmax of 52 ng/mL. Moreover, the Tmax in series [20] was found to be 48 min. Also, in series [23], the bioavailability amounted to 18%.
In the case of `CC(C)(C)NS(=O)(=O)c1ncc(-c2sc(C(=O)N[C@H]3C[C@H](C(=O)O)C3)nc2CC2CCCCC2)c2ccccc12`, in series [11], the Emax at 16 h, 1 µM came to 18%. The solubility thermodynamic at 10000 µM in series [1] came out at 13 µM (≈ 7.6 µg/mL). For the same compound, in [12], the solubility thermodynamic was 382 µM (≈ 223 µg/mL). Besides, the Emax at 16 h, 10 µM in [13] was 102%. Further, the half-life in series [2] is 61 min; in series [3], 77 min; in [18] it was 18 min; in series [22], 150 min. Further, the INH in series [4], in series [5], in series [6], in series [7], in series [8] and in series [9] was more than 10 µM throughout. Further, the Vd in [15] is 1.1 L/kg. For the same compound, in [24], the AUC is 232 ng·h/mL. Further, the C0 in series [17] was 2800 ng/mL. Further, the highest level in series [19] (Cmax) was 52 ng/mL. Besides, the Tmax in [20] turned out to be 24 min. Besides, the AUC(0-inf) in series [21] was 87 ng·h/mL. The compound further came in with a bioavailability in [23] of 7.5%.
Turning to `C[C@H](NS(=O)(=O)c1ccc(-c2sc(C(=O)N[C@H]3C[C@H](C(=O)O)C3)nc2CC2CCCCC2)c2ccccc12)C(F)(F)F`, the Stability entry in series [25] is given as “Stable”.
Turning to `CC(C)(C)NS(=O)(=O)c1ccc(-c2sc(C(=O)N3CC4(C3)CS(=O)(=O)C4)nc2CC2CCCCC2)c(Cl)c1Cl`, the Emax at 16 h, 1 µM in series [11] was 139%. Moreover, the solubility thermodynamic at 10000 µM in series [1] was less than 1 µM. Moreover, in series [12], the solubility thermodynamic was less than 4 µM. Also, the Emax at 16 h, 10 µM in series [13] turned out to be 160%. Besides, the half-life in series [2] was 55 min; in [3] it was 18 min; in series [18], 90 min; in series [22] it was 180 min. The INH in series [4] is more than 10 µM; in series [5], more than 10 µM; in series [6], more than 10 µM; in series [7], 1.6 µM; in series [8] it was more than 10 µM; in series [9], more than 10 µM. The clearance in series [14] worked out at 42.5 mL/min/kg. In addition, in series [15], the Vd was found to be 4.8 L/kg. The results for the AUC(0-inf) in series [16] and in [21] were 360 ng·h/mL and 1580 ng·h/mL, respectively. For the same compound, the C0 in series [17] was found to be 518 ng/mL. In series [19], this compound came in with a Cmax of 269 ng/mL. For the same compound, the Tmax in series [20] was found to be 60 min. This compound showed a bioavailability in [23] of 87.7%.
